Measured values taken from patent publication US20060128015A1, “Small hepatocyte-rich colonies, process for preparing the colonies, process for maturating the colonies into liver tissue and method of estimating effects of drug by using matured small hepatocyte-rich colonies” (priority 2001, published 2006).
Where two headings read alike, the source gives them in different places.

Columns and labels:
CYP2B1 = CYP2B1 induction capacity in matured small hepatocyte-rich colonies (Western blot); assay type: cell-based, rat; settings: 24 hours after addition, matured hepatocytes = 100%, 0 mM gave 30.8
CYP2E1 = settings: 24 hours after addition, matured hepatocytes = 100%, 0 mM gave 74.1
Method: (§1) About 200 to 250/cm^2 of the small hepatocyte colonies prepared in Example 2 were placed on a culture dish (diameter: 60 mm).
(§2) After the culture in a culture medium (1) (DMEM, 10% FBS, 10 mM nicotinamide, 1 mM ascorbic acid 2-phosphate, 10 ng/ml EGF, 10^−7 M dexamethasone, 0.5 μg/ml insulin, penicillin and streptomycin) for 12 to 24 hours, the culture medium was exchanged with a serum-free culture medium (2) (DMEM, 10 mM nicotinamide, 1 mM ascorbic acid 2-phosphate, 10 ng/ml EGF, 10^−7 M dexamethasone, 0.5 μg/ml insulin, penicillin, streptomycin and 1% DMSO). After the culture for additional 10 days while the culture medium was exchanged every other day, Matrigel diluted to 500 μg/ml with the culture medium was placed on the cells. 48 hours after the addition of Matrigel, the culture medium was exchanged, and the culture was continued by using DMSO-free culture medium (2) for 4 days. 6 days after the addition of Matrigel, drugs shown in the following Tables 3 to 6 were added in a concentration shown in the same Tables thereto, respectively. 24 hours after the addition of the drug, the cells were recovered.
(§3) After the proteins were separated with 10% SDS-PAGE, the intended protein was stained on the membrane by Western blot. The intensity of the band on the blot was digitized by a densitometer.
(§4) The primary antibodies used were goat anti-CYP2B 1 antibody (diluted to 1/300), goat anti-CYP3A2 antibody (diluted to 1/300), goat anti-CYP2E1 antibody (diluted to 1/1000) and goat anti-CYP4A1 antibody (diluted to 1/1000) (all bought from Daiichi Kagaku Yakuhin). The secondary antibodies were HRP-conjugated anti-goat/sheep Ig (diluted to 1/5000) bought from DAKO. The chromogenic substrate was Super Signal West Dura (chemiluminescence) purchased from Pierce.
(§5) Tables 3 to 6 show the relative activity of each enzyme as the induction capacity of each drug for the enzyme, wherein the activity of each enzyme in matured hepatocytes is defined as 100%. Pregnenolone was used in the form of a solution containing 0.5% ethanol, and clofibrate was used in the form of a solution containing 0.5% DMSO.

CYP3A2 = CYP3A2 induction capacity in matured small hepatocyte-rich colonies (Western blot); assay type: cell-based, rat; settings: 24 hours, matured hepatocytes = 100%, control (0.5% ethanol) 94.9
Method: as §1, §2, §3, §4, §5

CYP4A1 = CYP4A1 induction capacity in matured small hepatocyte-rich colonies (Western blot); assay type: cell-based, rat; settings: 24 hours, matured hepatocytes = 100%, control (0.5% DMSO) 74.1

## CCC1(c2ccccc2)C(=O)NC(=O)NC1=O [Phenobarbital]
CYP2B1; 0.75 mM
  CYP2B1 induction capacity (%): 37.4%
CYP2B1; 1.5 mM
  CYP2B1 induction capacity (%): 47.9%
CYP2B1; 3.0 mM
  CYP2B1 induction capacity (%): 46.9%
CYP2B1; 4.5 mM
  CYP2B1 induction capacity (%): 55.0%

## CCO [Ethanol]
CYP2E1; 250 mM
  CYP2E1 induction capacity (%): 76.5%
CYP2E1; 500 mM
  CYP2E1 induction capacity (%): 82.4%
CYP2E1; 750 mM
  CYP2E1 induction capacity (%): 98.8%
CYP2E1; 1000 mM
  CYP2E1 induction capacity (%): 86.4%

## CC(=O)[C@H]1CC[C@H]2[C@@H]3CC=C4C[C@@H](O)CC[C@]4(C)[C@H]3CC[C@]12C [Pregnenolone]
CYP3A2; 0.5 × 10^−3 mM in 0.5% ethanol
  CYP3A2 induction capacity (%): 115.5%
CYP3A2; 1.0 × 10^−3 mM in 0.5% ethanol
  CYP3A2 induction capacity (%): 141.0%
CYP3A2; 2.0 × 10^−3 mM in 0.5% ethanol
  CYP3A2 induction capacity (%): 148.1%
CYP3A2; 5.0 × 10^−3 mM in 0.5% ethanol
  CYP3A2 induction capacity (%): 153.2%

## CCOC(=O)C(C)(C)Oc1ccc(Cl)cc1 [Clofibrate]
CYP4A1; 0.1 mM in 0.5% DMSO
  CYP4A1 induction capacity (%): 76.5%
CYP4A1; 0.25 mM in 0.5% DMSO
  CYP4A1 induction capacity (%): 82.4%
CYP4A1; 0.5 mM in 0.5% DMSO
  CYP4A1 induction capacity (%): 98.8%
CYP4A1; 0.75 mM in 0.5% DMSO
  CYP4A1 induction capacity (%): 86.4%
